Results on 19 compounds are retold here after ChEMBL document CHEMBL1201862, “PubChem BioAssay data set” (2004).

Counter-ions that a name gives are not always drawn. Calls of active or inactive are those of the source.

The target of assay [1] is T1, Heat shock factor protein 1 (Mus musculus, UniProt P38532).
T1 sequence (P38532 whole entry): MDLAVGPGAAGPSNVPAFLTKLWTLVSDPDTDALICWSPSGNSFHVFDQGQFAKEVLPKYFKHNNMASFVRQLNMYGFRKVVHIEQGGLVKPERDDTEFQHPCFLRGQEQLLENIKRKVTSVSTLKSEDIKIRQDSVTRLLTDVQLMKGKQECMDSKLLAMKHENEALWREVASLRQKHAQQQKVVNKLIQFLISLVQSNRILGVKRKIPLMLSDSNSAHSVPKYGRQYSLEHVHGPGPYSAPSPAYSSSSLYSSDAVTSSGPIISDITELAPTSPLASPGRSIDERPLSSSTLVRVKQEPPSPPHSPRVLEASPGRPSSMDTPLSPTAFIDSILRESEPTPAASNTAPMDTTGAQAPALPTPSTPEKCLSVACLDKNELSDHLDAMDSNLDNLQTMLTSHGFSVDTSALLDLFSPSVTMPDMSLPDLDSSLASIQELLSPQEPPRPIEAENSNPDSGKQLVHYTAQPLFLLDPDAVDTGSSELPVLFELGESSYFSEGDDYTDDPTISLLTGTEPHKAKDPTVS
As to the kind of experiment: inhibition of MG132-induced HSE-luciferase signal, confirmation, cell-based, NIH3T3, luminescence, dose retest (AID 2382).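 Also: NIH3T3 fibroblasts with HSF1-driven luciferase reporter stressed by proteasome inhibitor MG132; luminescence from HSF1-driven luciferase expression after 8 hours of MG132 stress.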 The format is functional.

The target in assay [2] is T2, Trace amine-associated receptor 1 (Homo sapiens, UniProt Q96RJ0).
T2 sequence (Q96RJ0 whole entry): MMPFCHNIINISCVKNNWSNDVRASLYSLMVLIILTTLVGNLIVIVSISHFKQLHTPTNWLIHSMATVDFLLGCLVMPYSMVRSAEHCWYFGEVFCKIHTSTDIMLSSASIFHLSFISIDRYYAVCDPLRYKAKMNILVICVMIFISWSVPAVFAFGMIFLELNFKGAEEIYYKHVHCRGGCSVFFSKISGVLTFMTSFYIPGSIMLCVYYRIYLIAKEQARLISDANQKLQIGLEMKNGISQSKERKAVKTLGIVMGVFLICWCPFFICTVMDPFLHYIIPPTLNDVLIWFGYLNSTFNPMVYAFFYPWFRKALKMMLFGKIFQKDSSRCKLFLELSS
As to the kind of experiment: Counterscreen for agonists of the human trace amine associated receptor 1 (hTAAR1): Fluorescence-based cell-based high throughput dose response assay to identify hTAAR1 agonist that also desensitize TAAR1 receptor response. The format is functional. For orientation: The purpose of a counterscreen is to sort out artefacts and off-target activity.

Assay [3] is described as follows: cells. It counts as functional, cell-based.
Assay [4] in a line: cells. The format is functional, cell-based. This is another data set of the same source.
Assay [5] deals with T2, Trace amine-associated receptor 1. Briefly: Fluorescence-based cell-based high throughput dose response assay to identify agonists of the human trace amine associated receptor 1 (TAAR1). It counts as functional.
A short description of assay [6]: P. falciparum Dd2 growth inhibitors, dose response, SYBR Green, cherry-picked samples (AID 1159567). It counts as functional, cell-based.
Assay [7] is described as follows: HepG2 cell cytotoxicity, dose response, cytotoxicity control, cherry-picked samples (AID 1159577). It counts as functional, cell-based.
For assay [8], the target named is T3, Endoribonuclease toxin MazF (Escherichia coli K-12, UniProt P0AE70).
T3 sequence (P0AE70 whole entry): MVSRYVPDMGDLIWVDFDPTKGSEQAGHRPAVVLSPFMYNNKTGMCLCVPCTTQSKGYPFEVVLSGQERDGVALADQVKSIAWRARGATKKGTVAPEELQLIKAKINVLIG
As to the kind of experiment: MazF toxin RNase activators, dose response, biochemical, fluorescence, single-stranded RNA substrate, uHTS hits (AID 588481). The format is functional.

The target of assay [9] is T3, Endoribonuclease toxin MazF. Briefly: fluorescent RNA oligo signal without MazF, dose response, counter-screen for MazEF activator project, biochemical, fluorescence, single-stranded RNase substrate (AID 588502). It counts as functional.
The nature of assay [10]: HepG2 cell cytotoxicity, dose response, cytotoxicity control for Shn3 inhibitor project, CellTiter-Glo, cherry-picked (AID 624134). It counts as functional, cell-based. Background: ATP-based viability assays read luminescence as a measure of living cells.
The target of a further assay is Albumin (Bos taurus, UniProt P02769). As to the kind of experiment: Counterscreen for inhibitors of T-cell receptor (TCR)-CD3 interaction: Fluorescence-based biochemical high throughput dose response assay to identify inhibitors of T-cell receptor (TCR)-CD3 interaction using a TAMRA-labeled BSA probe. The format is functional.
Assay [11] addresses T4, Oxysterols receptor LXR-beta (Homo sapiens, UniProt P55055).
T4 sequence (P55055 whole entry): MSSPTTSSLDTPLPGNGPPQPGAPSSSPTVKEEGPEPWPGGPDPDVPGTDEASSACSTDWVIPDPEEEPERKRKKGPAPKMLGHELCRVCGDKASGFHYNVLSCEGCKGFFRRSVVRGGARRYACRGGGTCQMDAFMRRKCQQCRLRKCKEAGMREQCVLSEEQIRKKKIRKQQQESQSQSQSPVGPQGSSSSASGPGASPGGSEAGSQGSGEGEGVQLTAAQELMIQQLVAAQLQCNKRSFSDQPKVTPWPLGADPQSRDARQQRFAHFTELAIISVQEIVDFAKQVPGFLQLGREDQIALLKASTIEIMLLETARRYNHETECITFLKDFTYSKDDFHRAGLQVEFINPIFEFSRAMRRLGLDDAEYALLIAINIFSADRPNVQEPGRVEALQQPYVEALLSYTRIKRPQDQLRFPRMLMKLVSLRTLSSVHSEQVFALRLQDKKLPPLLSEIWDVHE
The format is functional, cell-based.

A short description of assay [12]: A549 cell cytotoxicity, dose response, cytotoxicity control, plate reader, cherry-pick, antagonist series (AID 743412). The format is functional, cell-based.
A short description of assay [13]: LGR2 antagonists, dose response, cell-based, HEK293, CRE-luciferase reporter, cherry pick, set 2 (AID 743343).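 Also: transfected cells were stimulated with diluted bursicon conditioned medium after compound addition.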 It counts as functional. (Reporter assays use an easily measured gene product as a stand-in for the process of interest.)
A short description of assay [14]: MC4R antagonists, dose response, counter-screen for LGR2 antagonist project, cell-based, plate reader, cherry pick (AID 743444).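 Also: transfected HEK 293 cells stimulated with alpha-MSH peptide; potency of inhibitors of the alpha-MSH evoked signal.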 It counts as functional.
A short description of assay [15]: HepG2 cell cytotoxicity, dose response, cytotoxicity control, plate reader, cherry-pick, antagonist series (AID 743416). The format is functional, cell-based.
The nature of assay [16]: inhibitors of SNCA 5'UTR-driven reporter translation, confirmation, H4 neuroglioma cells, luminescence (AID 1988). The format is functional, cell-based.
Assay [17] can be described thus: Luminescence Cell-Based Dose Response HTS to Identify Inhibitors of 5'UTR Stem-Loop Driven Prion Protein mRNA Translation in H4 Neuroglioblastoma Cells. [Related pubchem assays: 1827 (Project Summary), 1813 (Primary HTS)]. It counts as functional.
The nature of assay [18]: inhibitors of firefly luciferase expression or activity, dose response, H4 neuroglioma cells, luminescence (AID 1990). The format is functional, cell-based.
A short description of assay [19]: HEK293 cell cytotoxicity, dose response, cytotoxicity control, plate reader, cherry-picked samples (AID 743446). The format is functional, cell-based.
In assay [20] the target is T5, DNA repair protein RAD52 homolog (Homo sapiens, UniProt P43351).
T5 sequence (P43351 whole entry): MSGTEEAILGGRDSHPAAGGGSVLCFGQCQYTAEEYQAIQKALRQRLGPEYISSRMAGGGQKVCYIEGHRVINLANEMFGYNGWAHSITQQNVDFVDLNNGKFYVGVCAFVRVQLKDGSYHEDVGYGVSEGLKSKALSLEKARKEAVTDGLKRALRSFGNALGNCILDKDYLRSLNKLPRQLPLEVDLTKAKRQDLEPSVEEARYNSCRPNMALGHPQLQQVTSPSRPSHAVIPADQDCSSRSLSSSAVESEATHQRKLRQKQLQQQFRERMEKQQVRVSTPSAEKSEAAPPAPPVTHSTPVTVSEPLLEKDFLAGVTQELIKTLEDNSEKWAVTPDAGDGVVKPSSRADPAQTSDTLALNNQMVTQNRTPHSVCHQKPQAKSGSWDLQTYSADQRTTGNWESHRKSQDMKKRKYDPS
It counts as functional, biochemical.

The nature of assay [21]: Jurkat T cell cytotoxicity, dose response, cytotoxicity control for P. falciparum gametocyte viability project, luminescence (AID 1117277).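 Also: potency reflects loss of cellular ATP meaning fewer viable cells.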 It counts as functional, cell-based.
Assay [22] can be described thus: P. falciparum late gametocyte killing, dose response, luminescence (AID 1117278).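 Also: gametocytes exposed to compound for 24 hours.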 It counts as functional, cell-based.
The target in assay [23] is T6, Tyrosine-protein phosphatase non-receptor type 7 (Homo sapiens, UniProt P35236).
T6 sequence (P35236 whole entry): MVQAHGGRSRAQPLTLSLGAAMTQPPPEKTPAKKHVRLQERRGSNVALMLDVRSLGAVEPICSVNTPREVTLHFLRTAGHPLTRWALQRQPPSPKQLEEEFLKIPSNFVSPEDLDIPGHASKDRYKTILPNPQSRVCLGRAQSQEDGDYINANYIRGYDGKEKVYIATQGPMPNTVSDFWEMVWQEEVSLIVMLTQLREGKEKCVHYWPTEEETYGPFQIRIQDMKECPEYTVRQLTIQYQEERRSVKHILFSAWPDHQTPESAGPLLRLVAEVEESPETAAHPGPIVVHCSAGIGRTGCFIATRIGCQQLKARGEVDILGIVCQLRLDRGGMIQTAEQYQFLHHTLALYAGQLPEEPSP
Briefly: inhibitors of human HePTP phosphatase, […], biochemical, absorbance, leukemia target (AID 521). The format is functional.

Albumin, sequence (P02769 whole entry): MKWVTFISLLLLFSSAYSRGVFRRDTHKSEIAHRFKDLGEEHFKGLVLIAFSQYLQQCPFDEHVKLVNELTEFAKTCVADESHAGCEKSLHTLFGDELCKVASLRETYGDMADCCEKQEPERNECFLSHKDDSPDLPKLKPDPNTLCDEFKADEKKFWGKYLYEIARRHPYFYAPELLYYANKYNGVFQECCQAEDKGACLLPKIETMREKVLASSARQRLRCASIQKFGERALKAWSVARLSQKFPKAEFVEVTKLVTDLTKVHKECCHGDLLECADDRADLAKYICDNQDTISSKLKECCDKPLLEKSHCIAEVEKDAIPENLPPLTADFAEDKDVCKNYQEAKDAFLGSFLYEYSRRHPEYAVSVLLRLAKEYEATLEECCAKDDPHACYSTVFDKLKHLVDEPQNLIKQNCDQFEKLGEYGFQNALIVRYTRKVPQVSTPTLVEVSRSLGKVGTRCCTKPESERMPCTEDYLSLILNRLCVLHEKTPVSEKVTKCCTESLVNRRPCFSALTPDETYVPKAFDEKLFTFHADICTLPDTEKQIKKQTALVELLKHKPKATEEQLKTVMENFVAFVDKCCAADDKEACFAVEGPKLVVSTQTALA

As a reminder, the EC50 is the concentration needed to bring the measured effect to its halfway point. Broadly, the IC50 is the midpoint of a concentration-inhibition curve. Turning to `N=C(N)SCc1ccccc1Cl`, the values for the EC50 (in assay [1]; in “cells [3]”; in assay [5]) were 121 µM (active), > 29.9 µM (inactive) and 1.42 µM (active), respectively. Besides, the IC50 in assay [2] was 5.21 µM (active); in “cells [4]”, > 29.9 µM (inactive).
What is called AC50 is the midpoint of the concentration-response curve, whichever way the signal moves. With `COc1cccc(S(=O)(=O)Nc2ccc3c(c2)[C@@H]2C[C@H](CC(=O)NCc4ccc(Cl)cc4)O[C@@H](CO)[C@@H]2O3)c1`, the AC50 was 5.66 µM (active) in assay [6] and > 39 µM (inactive) in assay [7].
With `O=C1/C(=C/Nc2ccccc2O)c2ccccc2C(=O)N1c1nccs1`, the EC50 in assay [8] and in assay [9] was > 99 µM (inactive) in each case. Besides, the AC50 in [10] is > 70 µM (inactive). The IC50 at Albumin was > 94.1 µM (inactive).
For the compound `Cc1ccc(OCc2ccc(Br)cc2)c([N+](=O)[O-])n1`, the EC50 in assay [11] was > 67.5 µM (inactive).
Turning to `COc1ccc2cc3cc(C(=O)NC4CC4)sc3nc2c1`, the AC50 in assay [12] was 29.1 µM (active); in assay [13], 3.86 µM (active); in [14], 4.27 µM (active); in assay [15], > 52 µM (inactive); in [19], > 52 µM (inactive). In addition, the values for the EC50 in assay [16], in assay [17] and in assay [18] were 5.41 µM (active), 7.47 µM (active) and 6.66 µM (inconclusive), respectively.
Regarding `Cc1cccc(C(=O)NCC(=O)NNC(=O)c2ccccc2O)c1`, on Albumin, the IC50 is > 94 µM (inactive).
For the compound `c1ccc2c(CC3=NCCN3)cccc2c1` [NAPHAZOLINE HYDROCHLORIDE], the figures for the IC50 (in assay [2]; in the assay “cells [4]”) were 1.15 µM (active) and > 29.9 µM (inactive), respectively. In addition, the EC50 in “cells [3]” was > 29.9 µM (inactive); in assay [5] it was 0.14 µM (active).
Turning to `COc1ccccc1CCn1cnc(-c2ccc(Cl)cc2)c1CC(C)C`, the AC50 was 23.2 µM (active) in [12]; 19 µM (active) in [13]; 17.7 µM (active) in assay [14]; 31.2 µM (active) in assay [15]; > 52 µM (inactive) in assay [19]. Further, the IC50 is 6.55 µM (active) in assay [2] and 14.2 µM (inactive) in the assay “cells [4]”. For the same compound, the EC50 in “cells [3]” was > 30 µM (inactive); in assay [5] it was 2.37 µM (active).
As for `COCC1CCN(Cc2nc(-c3cccs3)no2)C1` (stereo not given), the EC50 in assay [11] was > 67.5 µM (inactive).
Take `Cc1ccccc1Cn1c2ccccc2c2cnn(CC(=O)NCCCN3CCN(C)CC3)c(=O)c21`: the AC50 in assay [20] was 9.43 µM (active).
`CCOC(=O)CSc1nc2cc3c(cc2cc1C)OCO3`: the IC50 is > 83.3 µM (inactive) in assay [21] and > 109 µM (inactive) in assay [22].
Turning to `CN(C)CCN(C(=O)c1ccc2ccccc2c1)c1nc2cc3c(cc2s1)OCO3`, the AC50 in assay [20] was 28.3 µM (active).
With `COc1ccc(Cc2nnc(NC(=O)c3ccco3)s2)cc1OC`, the IC50 in assay [23] is recorded as > 100 µM (not active).
For `CO[C@H]1CN(C)C(=O)c2cc(NC(=O)c3ccc(-c4ccccc4)cc3)ccc2OC[C@H](C)NC[C@H]1C`, the AC50 in [6] is 5.36 µM (active); in [7], 10.1 µM (active).
As for `Fc1ccc(Nc2nc(-c3ccncc3)cs2)cc1`, the values for the IC50 in [21] and in assay [22] were > 83.2 µM (inactive) and > 109 µM (inactive), respectively.
Regarding `C(=C\n1nnc2ccccc21)/c1ccccn1`, in [11], the EC50 is > 67.5 µM (inactive).
Consider `COc1ccc(-c2nc(N)n(C(=O)c3ccccc3)n2)cc1`, for which the values for the IC50 in [21] and in assay [22] were > 83.3 µM (inactive) and > 109 µM (inactive), respectively.
The corresponding values for `Cc1cc(C)cc(OCc2nc(-c3cccnc3)no2)c1` are > 83.3 µM (inactive) and > 109 µM (inactive).
For `CCn1c2ccccc2c2nnc(SCC(=O)N3CC(C)OC(C)C3)nc21` (stereo not given), in [23], the IC50 is given as > 100 µM (not active).
